Here are results for three compounds from patent EP4755396A1, “TREATMENT OF P53 GENE MUTATION OR DEFECT NEGATIVE CANCER AND TUMOR PATIENTS” (Ascentawits Pharmaceuticals, Ltd., priority 2023, dated 2025).

The subject of assay [1] is HPAF-II cells. As to the kind of experiment: In vitro cell proliferation inhibition (96-well, CTG, 72 hours). It counts as cell-based. The settings on record: Homo sapiens, HPAF-II cells, 72 hours; for inhibition at 2.5 µM: RITA 2.5 µM; for inhibition at 5 µM: RITA 5 µM. As to the method:
(§1) • 1) H460 and HPAF-II cell suspensions were added to a 96-well plate at 100 µL per well, with a cell density of 2000 /well and 20000/well, respectively. • 2) The cells were cultured overnight in an incubator at 37°C, 5% CO2. • 3) Compound Treatment
(§2) Combination therapy: After 24 hours of cell plating, 99 µL of growth medium was supplied to each well. Each well was added with 0.5 µL of Nutlin-3 or RITA, shaken gently to ensure even mixing, and then placed in an incubator for 2 hours. Then each well was added with 0.5µL of test compounds at different concentrations, shaken gently to ensure even mixing, and then placed at 37°C, 5% CO2 in an incubator.
(§3) Monotherapy: After 24 hours of cell plating, 99.5 µL of growth medium was supplied to each well. Then each well was added with 0.5µL of test compounds at different concentrations, shaken gently to ensure even mixing, and then placed at 37°C, 5% CO2 in an incubator.
(§4) 4) The cell plate was placed in the incubator for 72 hours.
(§5) 5) The cell plate to be tested was placed at room temperature to equilibrium for 30 minutes, and 100µL of medium was discarded per well.
(§6) 6) 25µL of CTG reagent was added to each well, placed at a fast shaker to shake for 2 minutes, and placed at room temperature away from light for 30 minutes.
(§7) 7) The chemiluminescence signal value was read using a multifunctional microplate reader with a reading time of 1000 ms. The corresponding inhibition rate data were calculated.

In assay [2] the test system is H460 cells. As to the kind of experiment: In vitro cell proliferation inhibition under normoxia (96-well, CTG, 72 hours). The settings on record: for inhibition at 0.025 µM / inhibition at 0.05 µM: NCI-H460, H460 cells; for inhibition at 0.025 µM: RITA 0.025 µM; for inhibition at 0.05 µM: RITA 0.05 µM. In kind it is cell-based, human. As for the experimental part: Overview of the experimental process • 1) H460 cell suspension was added to a 96-well plate at 100 µL per well, with a cell density of 2000 /well. • 2) The cells were cultured overnight in an incubator at 37°C, 5% CO2. • 3) Compound Treatment
Monotherapy: After 24 hours of cell plating, each well was supplied with 99.5 µL of growth medium then added with 0.5µL of test compounds at different concentrations, shaken gently to ensure even mixing, and then placed at 37°C, 5% CO2 in an incubator.
Combination therapy: After 24 hours of cell plating, each well was supplied with 99 µL of growth medium then added with 0.5µL of the combined action compound Nutlin-3, shaken gently to ensure even mixing, and then placed in an incubator for 2 hours. Then each well was added with 0.5µL of test compounds at different concentrations, shaken gently to ensure even mixing, and then placed at 37°C, 5% CO2 in an incubator.
as §4, §5, §6
(§8) 7) The chemiluminescence signal value was read using a multifunctional microplate reader with a reading time of 1000 ms.
8) IC50 was calculated with Graph Pad Prism 5 software.
as §1, §2, §3, §7
(§9) • 1) NCI-H460, NCI-H460 P53KO # 1 cell suspensions were added to a 96-well plate at 100 µL per well, with a cell density of 2000 /well. • 2) The cells were cultured overnight in an incubator at 37°C, 5% CO2. • 3) Compound Treatment
(§10) Combination therapy: After 24 hours of cell plating, 99 µL of medium was supplied to each well. Each well was added with 0.5µL of combined action compound, shaken gently to ensure even mixing, and then placed in an incubator for 2 hours. Then each well was added with 0.5µL of test compounds at different concentrations, shaken gently to ensure even mixing, and then placed at 37°C, 5% CO2 in an incubator.
(§11) 8) The ICso (half maximal inhibitory concentration) values were calculated using GraphPad Prism 5 software.

Assay [3] deals with RAD51 protein in H460 cells. In words: WB detection of RAD51 protein amount, degradation and half-life. It counts as cell-based. The note with it: 0.1-1 nM AST-3424, 5 µM Nutlin-3, 5 µM MG-132, 24 hours (Figures 14-17). As to the method:
In the first, the second and the third experiments of the effect of AST-3424 in combination with Nutlin-3 on Ser15-p53, Ser20-p53, Total p53, MDM2 and p21 proteins in H460 cells in example 5, the applicant also performed WB detection of RAD51 protein, with the results shown in Figures 14, 15 and 16.
• 1) H460 cell suspension was added to a 24-well plate, with a cell density of 100000 /well and 995 µL of medium per well. • 2) The cells were cultured overnight in an incubator at 37°C, 5% CO2. • 3) Compound Treatment
Monotherapy: After 24 hours of cell plating, each well was supplied with 5µL of test compounds at different concentrations: 1% DMSO, 0.1nM AST-3424 and 5 µM Nutlin-3, shaken gently to ensure even mixing, and then placed at 37°C, 5% CO2 in an incubator. After continuing culture for 24 hours, the cells were collected.
Combination therapy: After 24 hours of cell plating, • Adding 0.1 nM AST-3424 for pre-treatment for 2 hours, and then adding 5 µM Nutlin-3 for co-treatment for 22 hours; • Adding 1% DMSO and 5 µM MG-132 for co-treatment for 24 hours; • Adding 0.1 nM AST-3424 and 5 µM MG-132 for co-treatment for 24 hours; • Adding 5 µM Nutlin-3 and 5 µM MG-132 for co-treatment for 24 hours; • Adding 0.1 nM AST-3424 for pre-treatment for 2 hour, and then adding 5 µM Nutlin-3 for treatment for 16 hours, and then adding 5µM MG-132 for co-treatment for 6 hours. […]

Assay [4] has as its system H460 P53 KO #1. As to the kind of experiment: In vitro cell proliferation inhibition under normoxia, p53 knockout cells. It counts as cell-based, human. As to the method:
The p53 CRISPR/Cas9 KO plasmid (human) and p53 HDR plasmid (human) were purchased from Santa Cruz Company to construct H460 P53 KO cell lines, namely p53 knockout (KnockOut) H460 cell lines. Three groups of H460 P53 KO cell lines were constructed with numbers of H460 P53 KO # 1, H460 P53 KO # 7, and H460 P53 KO # 12.
After co-incubation for 15 minutes, they were added dropwise to the culture medium and mixed well.
After 48 h, 2 µg/mL puromycin was added for screening.
When the cell colonies grew to a sufficient size, single colonies were picked and cultured.
When the cell number reached a sufficient quantity, samples were collected for WB identification of the colonies.
H460 P53 KO cell lines, i.e. H460 P53 KO # 1, H460 P53 KO # 7, H460 P53 KO # 12 cell lines were used in experiments, respectively.
as §9, §3, §10, §4, §5, §6, §8, §11

Molecules are shown by their SMILES. Read-outs that look alike come from different tables or passages of the source. Peptide text beside a SMILES is read from it. * marks the point of attachment. Cbz = O=C(OCc1ccccc1)*

For orientation: inhibition means the drop in the measured response relative to a control, in per cent. In the case of `OCc1ccc(-c2ccc(-c3ccc(CO)s3)o2)s1` [RITA], the inhibition at 2.5 µM in assay [1] (AST 60 nM, AST + RITA 60+2.5, read-out: Inhibition rate, experimental group 1) was 2.86%; in assay [1] (AST 200 nM, AST + RITA 200+2.5, read-out: Inhibition rate, experimental group 3), 2.86%; in assay [1] (AST 1667 nM, AST + RITA 1667+2.5, read-out: Inhibition rate, experimental group 5), 2.86%; in assay [1] (AST 5000 nM, AST + RITA 5000+2.5, read-out: Inhibition rate, experimental group 7) it was 2.86%. Moreover, the inhibition at 5 µM worked out at 5.56% in assay [1] (AST 60 nM, AST + RITA 60+5, read-out: Inhibition rate, experimental group 2); 5.56% in assay [1] (AST 200 nM, AST + RITA 200+5, read-out: Inhibition rate, experimental group 4); 5.56% in assay [1] (AST 1667 nM, AST + RITA 1667+5, read-out: Inhibition rate, experimental group 6); 5.56% in assay [1] (AST 5000 nM, AST + RITA 5000+5, read-out: Inhibition rate, experimental group 8). Also, the inhibition at 0.025 µM in assay [2] (Homo sapiens, 72 hours, AST 0.5 nM, AST + RITA 0.5+0.025, read-out: Inhibition rate result, experimental group 1) amounted to 22.3%; in assay [2] (Homo sapiens, 72 hours, AST 1.5 nM, AST + RITA 1.5+0.025, read-out: Inhibition rate result, experimental group 3) it was 22.3%. The inhibition at 0.05 µM in assay [2] (Homo sapiens, 72 hours, AST 0.5 nM, AST + RITA 0.5+0.05, read-out: Inhibition rate result, experimental group 2) stood at 22.4%; in assay [2] (Homo sapiens, 72 hours, AST 1.5 nM, AST + RITA 1.5+0.05, read-out: Inhibition rate result, experimental group 4), 22.4%.
`CC(C)C[C@@H](C=O)NC(=O)[C@H](CC(C)C)NC(=O)[C@H](CC(C)C)NC(=O)OCc1ccccc1` [MG-132] (Cbz-Leu-Leu-Leu-aldehyde): the “RAD51 protein amount (WB)” value in assay [3] was “reversed the downregulation of RAD51 protein”.
In general, IC50 refers to the point on the concentration scale where inhibition reaches its midpoint. In the case of `CN(C)C(=O)c1cccc(Oc2cc3c(cc2[N+](=O)[O-])OCCC3OP(=O)(N2CC2)N2CC2)c1` (centres unmarked) [Compound C], the IC50 in assay [2] (Homo sapiens, NCI-H460, 72 h, NCI-H460, normoxia, 72 hours, alone or with 3 µM AST-3021 as labelled (Example 13)) amounted to 0.00205 µM; in assay [4] (Homo sapiens, NCI-H460, 72 h, NCI-H460 P53KO # 1, normoxia, 72 hours, alone or with 3 µM AST-3021 as labelled (Example 13)) it was 0.0361 µM. Further, the “Ratio, combination therapy/ monotherapy” value was 305.37 in assay [2] (IC50 ratio, NCI-H460, + 3 µM AST-3021 versus alone (Example 13)) and 43.24 in assay [4] (IC50 ratio, NCI-H460 P53KO # 1, + 3 µM AST-3021 versus alone (Example 13)). Further, the “Ratio, Compound C/AST-3424” value is reported as 4.77 in assay [2] (IC50 ratio, NCI-H460, monotherapy) and 6.62 in assay [4] (IC50 ratio, NCI-H460 P53KO # 1, monotherapy). The “Ratio, knockout / wild” value in assay [4] (IC50 ratio, NCI-H460 P53KO # 1 versus NCI-H460, monotherapy (Example 13)) was found to be 17.60.
